Reference: ChEMBL document CHEMBL1764959, “Design, synthesis, and structure-activity relationship studies of thiophene-3-carboxamide derivatives as dual inhibitors of the c-Jun N-terminal kinase” (Bioorg Med Chem, 2011)

Key:
[1] = target: T1, Mitogen-activated protein kinase 8 (Homo sapiens, UniProt P45983); experiment: Inhibition of JNK1 by TR-FRET assay
[2] = target: Mitogen-activated protein kinase 1 (Homo sapiens) (UniProt P28482); experiment: Inhibition of MAPK1 at 25 uM by TR-FRET assay
[3] = target: Protein kinase C alpha type (Homo sapiens) (UniProt P17252); experiment: Inhibition of PRKCA at 25 uM by TR-FRET assay
[4] = target: Calcium/calmodulin-dependent protein kinase type 1 (Homo sapiens) (UniProt Q14012); experiment: Inhibition of CAMK1 at 25 uM by TR-FRET assay
[5] = target: Mitogen-activated protein kinase 10 (Homo sapiens) (UniProt P53779); experiment: Inhibition of JNK3 at 25 uM by TR-FRET assay
[6] = target: Phosphatidylinositol 4,5-bisphosphate 3-kinase catalytic subunit alpha isoform (Homo sapiens) (UniProt P42336); experiment: Inhibition of PI3Kalpha at 25 uM by TR-FRET assay
[7] = target: Dual specificity mitogen-activated protein kinase kinase 1 (Homo sapiens) (UniProt Q02750); experiment: Inhibition of MAK2K1 at 25 uM by TR-FRET assay
[8] = target: Mitogen-activated protein kinase 14 (Homo sapiens) (UniProt Q16539); experiment: Inhibition of MAPK14 at 25 uM by direct TR-FRET assay
[9] = target: Sphingosine kinase 1 (Homo sapiens) (UniProt Q9NYA1); experiment: Inhibition of SPHK1 at 25 uM by TR-FRET assay
[10] = target: Serine/threonine-protein kinase Chk1 (Homo sapiens) (UniProt O14757); experiment: Inhibition of CHEK1 at 25 uM by TR-FRET assay
[11] = target: Inhibitor of nuclear factor kappa-B kinase subunit alpha (Homo sapiens) (UniProt O15111); experiment: Inhibition of CHUK at 25 uM by TR-FRET assay
[12] = target: Serine/threonine-protein kinase B-raf (Homo sapiens) (UniProt P15056); experiment: Inhibition of BRAF at 25 uM by TR-FRET assay
[13] = target: T2, Mitogen-activated protein kinase 9 (Homo sapiens, UniProt P45984); experiment: Binding affinity to JNK2
[14] = target: Mitogen-activated protein kinase kinase kinase 9 (Homo sapiens) (UniProt P80192); experiment: Inhibition of MAPK3K9 at 25 uM by TR-FRET assay
[15] = target: T2, Mitogen-activated protein kinase 9; experiment: Inhibition of JNK2 at 25 uM by TR-FRET assay
[16] = target: Aurora kinase A (Homo sapiens) (UniProt O14965); experiment: Inhibition of AURK A at 25 uM by TR-FRET assay
[17] = target: Mitogen-activated protein kinase 3 (Homo sapiens) (UniProt P27361); experiment: Inhibition of MAPK3 at 25 uM by TR-FRET assay
[18] = target: Mitogen-activated protein kinase 14 (Homo sapiens) (UniProt Q16539); experiment: Inhibition of MAPK14 at 25 uM by TR-FRET assay
[19] = target: Cyclin-dependent kinase 1 (Homo sapiens) (UniProt P06493); experiment: Inhibition of CDK1 at 25 uM by TR-FRET assay
[20] = target: T1, Mitogen-activated protein kinase 8; experiment: Displacement of biotin-labeled JIP1 peptide from JNK1 by DELFIA assay
[21] = target: 3-phosphoinositide-dependent protein kinase 1 (Homo sapiens) (UniProt O15530); experiment: Inhibition of PDK1 at 25 uM by direct TR-FRET assay
[22] = target: T1, Mitogen-activated protein kinase 8; conditions: 25 uM
Description: Inhibition of JNK1 at 25 uM by TR-FRET assay

[23] = target: Mitogen-activated protein kinase kinase kinase kinase 2 (Homo sapiens) (UniProt Q12851); experiment: Inhibition of MAP4K2 at 25 uM by TR-FRET assay
[24] = target: 5'-AMP-activated protein kinase catalytic subunit alpha-1 (Homo sapiens) (UniProt Q13131); experiment: Inhibition of AMPK A1 at 25 uM by TR-FRET assay
[25] = target: Serine/threonine-protein kinase pim-1 (Homo sapiens) (UniProt P11309); experiment: Inhibition of PIM1 at 25 uM by TR-FRET assay
[26] = target: RAC-alpha serine/threonine-protein kinase (Homo sapiens) (UniProt P31749); experiment: Inhibition of AKT1 at 25 uM by TR-FRET assay
[27] = target: Serine/threonine-protein kinase mTOR (Homo sapiens) (UniProt P42345); experiment: Inhibition of FRAP1 at 25 uM by TR-FRET assay
[28] = target: Serine/threonine-protein kinase Nek1 (Homo sapiens) (UniProt Q96PY6); experiment: Inhibition of NEK1 at 25 uM by TR-FRET assay
[29] = target: Rho-associated protein kinase 1 (Homo sapiens) (UniProt Q13464); experiment: Inhibition of ROCK1 at 25 uM by TR-FRET assay
[30] = target: Glycogen synthase kinase-3 alpha (Homo sapiens) (UniProt P49840); experiment: Inhibition of GSK3alpha at 25 uM by TR-FRET assay
Plasma = experiment: Metabolic stability in rat plasma after 60 mins by LC/MS analysis; assay type: ADME, cell-free; conditions: 1 h
Liver microsomes = experiment: Half life in rat liver microsomes by LC/MS analysis; assay type: ADME, Microsome

T1 sequence (P45983 whole entry): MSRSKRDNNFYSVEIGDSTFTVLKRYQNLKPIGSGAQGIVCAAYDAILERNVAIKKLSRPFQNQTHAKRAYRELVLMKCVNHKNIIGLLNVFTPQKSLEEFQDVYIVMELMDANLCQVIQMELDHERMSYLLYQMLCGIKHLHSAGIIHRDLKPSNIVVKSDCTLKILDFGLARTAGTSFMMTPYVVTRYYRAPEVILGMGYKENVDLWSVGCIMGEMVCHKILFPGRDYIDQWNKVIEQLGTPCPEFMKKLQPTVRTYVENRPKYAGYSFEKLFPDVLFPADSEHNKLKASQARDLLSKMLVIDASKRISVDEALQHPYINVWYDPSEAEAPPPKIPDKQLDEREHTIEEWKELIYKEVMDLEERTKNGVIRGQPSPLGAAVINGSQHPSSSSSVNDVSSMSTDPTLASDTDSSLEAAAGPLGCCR
Chain of Mitogen-activated protein kinase 14 (Homo sapiens) (Q16539 whole entry): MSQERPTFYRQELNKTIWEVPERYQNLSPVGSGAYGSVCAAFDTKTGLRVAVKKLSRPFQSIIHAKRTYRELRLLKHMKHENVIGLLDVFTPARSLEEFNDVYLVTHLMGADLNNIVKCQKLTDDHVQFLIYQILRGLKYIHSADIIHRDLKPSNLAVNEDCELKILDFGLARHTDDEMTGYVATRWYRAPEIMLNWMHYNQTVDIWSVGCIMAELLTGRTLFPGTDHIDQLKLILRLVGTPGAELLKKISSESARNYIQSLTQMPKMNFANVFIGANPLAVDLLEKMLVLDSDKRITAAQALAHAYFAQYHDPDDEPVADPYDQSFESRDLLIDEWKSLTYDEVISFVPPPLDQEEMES
Chain of Mitogen-activated protein kinase 1 (Homo sapiens) (P28482 whole entry): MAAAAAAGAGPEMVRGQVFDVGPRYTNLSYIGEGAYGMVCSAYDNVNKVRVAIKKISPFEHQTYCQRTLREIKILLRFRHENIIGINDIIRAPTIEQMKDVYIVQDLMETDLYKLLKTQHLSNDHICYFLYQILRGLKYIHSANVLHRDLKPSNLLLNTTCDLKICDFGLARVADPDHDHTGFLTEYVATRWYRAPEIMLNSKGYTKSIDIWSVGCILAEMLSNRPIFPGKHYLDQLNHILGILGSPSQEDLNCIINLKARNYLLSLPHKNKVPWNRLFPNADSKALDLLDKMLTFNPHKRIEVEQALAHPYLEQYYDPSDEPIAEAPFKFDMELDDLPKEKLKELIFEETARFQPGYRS
Chain of Inhibitor of nuclear factor kappa-B kinase subunit alpha (Homo sapiens) (O15111 whole entry): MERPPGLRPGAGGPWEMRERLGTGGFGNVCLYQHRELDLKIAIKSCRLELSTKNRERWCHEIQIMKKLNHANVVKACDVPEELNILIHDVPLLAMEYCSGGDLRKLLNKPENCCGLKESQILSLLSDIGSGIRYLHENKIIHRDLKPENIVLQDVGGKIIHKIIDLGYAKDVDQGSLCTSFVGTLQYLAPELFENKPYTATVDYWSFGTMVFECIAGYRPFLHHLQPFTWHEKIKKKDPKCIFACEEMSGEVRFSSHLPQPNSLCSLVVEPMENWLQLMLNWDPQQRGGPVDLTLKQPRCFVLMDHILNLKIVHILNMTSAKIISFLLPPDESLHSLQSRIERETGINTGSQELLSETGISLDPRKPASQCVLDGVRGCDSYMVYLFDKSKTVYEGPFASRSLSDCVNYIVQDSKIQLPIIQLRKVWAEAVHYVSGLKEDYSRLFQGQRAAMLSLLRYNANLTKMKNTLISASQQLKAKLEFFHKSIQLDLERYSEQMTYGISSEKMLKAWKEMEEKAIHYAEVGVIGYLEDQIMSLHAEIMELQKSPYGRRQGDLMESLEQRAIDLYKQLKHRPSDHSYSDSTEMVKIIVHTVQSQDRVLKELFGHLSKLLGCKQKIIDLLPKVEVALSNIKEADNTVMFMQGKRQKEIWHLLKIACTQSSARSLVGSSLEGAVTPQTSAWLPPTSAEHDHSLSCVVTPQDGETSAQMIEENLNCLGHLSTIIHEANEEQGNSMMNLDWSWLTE
Chain of Rho-associated protein kinase 1 (Homo sapiens) (Q13464 2-1354 limits assumed): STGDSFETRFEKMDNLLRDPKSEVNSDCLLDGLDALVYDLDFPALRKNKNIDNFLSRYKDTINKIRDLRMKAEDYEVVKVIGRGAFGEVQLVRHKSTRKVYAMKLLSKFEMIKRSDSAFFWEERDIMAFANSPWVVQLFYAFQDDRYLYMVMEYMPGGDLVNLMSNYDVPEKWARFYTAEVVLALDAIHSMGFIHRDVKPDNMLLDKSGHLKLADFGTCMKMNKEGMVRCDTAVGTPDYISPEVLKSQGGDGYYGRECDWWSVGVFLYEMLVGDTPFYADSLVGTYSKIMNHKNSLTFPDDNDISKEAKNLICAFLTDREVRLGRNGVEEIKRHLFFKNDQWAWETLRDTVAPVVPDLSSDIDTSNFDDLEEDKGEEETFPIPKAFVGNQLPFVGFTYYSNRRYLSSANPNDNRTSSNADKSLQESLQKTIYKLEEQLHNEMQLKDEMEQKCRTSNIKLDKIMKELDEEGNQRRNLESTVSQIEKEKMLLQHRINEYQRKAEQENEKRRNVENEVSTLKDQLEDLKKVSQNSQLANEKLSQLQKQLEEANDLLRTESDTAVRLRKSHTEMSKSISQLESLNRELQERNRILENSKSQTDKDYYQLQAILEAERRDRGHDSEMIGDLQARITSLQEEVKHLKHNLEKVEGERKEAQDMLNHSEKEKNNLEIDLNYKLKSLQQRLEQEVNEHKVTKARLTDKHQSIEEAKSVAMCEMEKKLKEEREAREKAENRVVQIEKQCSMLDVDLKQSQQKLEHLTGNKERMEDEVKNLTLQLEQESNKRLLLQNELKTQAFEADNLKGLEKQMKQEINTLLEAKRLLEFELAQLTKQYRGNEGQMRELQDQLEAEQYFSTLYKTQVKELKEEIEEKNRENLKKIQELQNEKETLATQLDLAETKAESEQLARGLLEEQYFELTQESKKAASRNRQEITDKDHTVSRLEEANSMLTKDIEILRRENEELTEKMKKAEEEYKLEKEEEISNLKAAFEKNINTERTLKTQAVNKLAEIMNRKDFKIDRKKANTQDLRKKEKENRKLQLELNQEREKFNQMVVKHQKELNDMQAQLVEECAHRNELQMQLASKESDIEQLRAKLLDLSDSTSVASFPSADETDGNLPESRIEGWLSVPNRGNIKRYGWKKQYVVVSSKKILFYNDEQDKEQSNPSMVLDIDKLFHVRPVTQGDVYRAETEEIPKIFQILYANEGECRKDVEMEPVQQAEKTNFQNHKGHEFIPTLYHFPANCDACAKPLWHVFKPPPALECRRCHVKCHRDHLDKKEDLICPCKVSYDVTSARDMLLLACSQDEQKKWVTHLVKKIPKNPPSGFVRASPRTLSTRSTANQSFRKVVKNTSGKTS
Chain of Mitogen-activated protein kinase 10 (Homo sapiens) (P53779 whole entry, canonical isoform): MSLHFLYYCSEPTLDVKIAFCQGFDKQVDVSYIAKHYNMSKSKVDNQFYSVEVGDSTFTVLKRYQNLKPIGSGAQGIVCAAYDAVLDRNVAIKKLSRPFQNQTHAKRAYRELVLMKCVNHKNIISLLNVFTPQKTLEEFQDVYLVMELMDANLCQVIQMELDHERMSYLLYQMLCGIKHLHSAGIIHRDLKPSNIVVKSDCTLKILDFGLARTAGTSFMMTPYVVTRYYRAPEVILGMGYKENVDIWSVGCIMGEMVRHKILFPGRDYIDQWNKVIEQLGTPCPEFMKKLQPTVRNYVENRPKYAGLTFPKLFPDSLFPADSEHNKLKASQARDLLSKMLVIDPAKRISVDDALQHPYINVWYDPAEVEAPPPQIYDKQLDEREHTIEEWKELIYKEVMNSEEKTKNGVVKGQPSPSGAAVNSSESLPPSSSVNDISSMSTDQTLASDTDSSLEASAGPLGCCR
Chain of Serine/threonine-protein kinase pim-1 (Homo sapiens) (P11309 whole entry, looked up): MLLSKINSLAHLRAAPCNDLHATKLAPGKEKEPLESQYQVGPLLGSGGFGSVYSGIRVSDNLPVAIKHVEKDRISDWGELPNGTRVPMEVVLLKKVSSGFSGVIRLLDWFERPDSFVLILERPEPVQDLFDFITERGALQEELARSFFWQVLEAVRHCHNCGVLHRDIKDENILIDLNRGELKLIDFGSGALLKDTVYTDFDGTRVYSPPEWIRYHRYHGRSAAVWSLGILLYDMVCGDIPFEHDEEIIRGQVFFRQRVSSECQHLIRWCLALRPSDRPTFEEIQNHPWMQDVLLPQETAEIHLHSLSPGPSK
Chain of Cyclin-dependent kinase 1 (Homo sapiens) (P06493 whole entry, looked up): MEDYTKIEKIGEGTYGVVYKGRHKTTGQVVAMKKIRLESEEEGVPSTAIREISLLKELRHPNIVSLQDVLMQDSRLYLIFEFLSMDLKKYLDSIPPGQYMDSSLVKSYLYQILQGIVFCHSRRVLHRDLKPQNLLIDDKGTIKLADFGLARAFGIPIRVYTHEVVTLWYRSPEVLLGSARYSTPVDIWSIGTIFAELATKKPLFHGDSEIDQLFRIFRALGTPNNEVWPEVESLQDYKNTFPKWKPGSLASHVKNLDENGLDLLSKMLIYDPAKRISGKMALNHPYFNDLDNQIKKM

Cc1csc(NC(=O)Cc2cccc3ccccc23)c1C(N)=O
IC50 [1]: > 25 µM

COc1ccc2cc(Br)ccc2c1CC(=O)Nc1sccc1C(N)=O
IC50 [1]: > 25 µM

NC(=O)c1ccsc1NC(=O)Cc1csc2ccccc12
inhibition [2]: 4% | inhibition [3]: 0% | inhibition [4]: 2% | inhibition [5]: 18% | inhibition [6]: 4% | inhibition [7]: 0% | inhibition [8]: 2% | inhibition [9]: 1% | inhibition [10]: 0% | inhibition [11]: 0% | inhibition [12]: 2% | Kd [13]: 0.64 µM | inhibition [14]: 0% | inhibition [15]: 72% | inhibition [16]: 0% | inhibition [17]: 3% | inhibition [18]: 11% | inhibition [19]: 3% | IC50 [20]: 4.62 µM | inhibition [21]: 0% | inhibition [22]: 79% | inhibition [23]: 1% | inhibition [24]: 0% | inhibition [25]: 0% | inhibition [26]: 5% | inhibition [27]: 0% | inhibition [28]: 0% | IC50 [1]: 1.3 µM | inhibition [29]: 0% | inhibition [30]: 16% | Stability (Plasma): Stable

NC(=O)c1ccsc1NC(=O)Cc1c(F)c(F)c(F)c(F)c1F
IC50 [1]: > 50 µM

NC(=O)c1ccsc1NC(=O)Cc1c[nH]c2ccccc12
IC50 [1]: 9.4 µM

NC(=O)c1ccc(NC(=O)Cc2cccc3ccccc23)s1
IC50 [1]: > 100 µM

NC(=O)c1ccsc1NC(=O)Cc1nc2ccccc2[nH]1
IC50 [1]: > 25 µM

NC(=O)c1ccsc1NC(=O)c1ccccc1
IC50 [1]: 5.9 µM

NC(=O)c1ccsc1NC(=O)/C=C/c1ccccc1
IC50 [1]: > 100 µM

NC(=O)c1ccsc1NC(=O)Cc1ccccc1Cl
t1/2 (Liver microsomes): 27 min | IC50 [1]: 1.4 µM | Stability (Plasma): Stable

NC(=O)c1ccsc1NC(=O)Cc1coc2ccccc12
IC50 [1]: > 25 µM

COc1ccc(CC(=O)Nc2sccc2C(N)=O)cc1
IC50 [1]: 5.7 µM

CC1CN(CC(=O)Nc2sccc2C(N)=O)CC(C)O1 (configuration not stated)
IC50 [1]: 65.3 µM

NC(=O)c1ccsc1NC(=O)CN1CCN(Cc2ccco2)CC1
IC50 [1]: 7.6 µM

NC(=O)c1ccsc1NC(=O)Cc1ccc(-c2ccccc2)cc1
IC50 [1]: > 50 µM

NC(=O)c1ccsc1NC(=O)Cc1ccccc1
IC50 [1]: 3.6 µM

NC(=O)c1ccsc1NC(=O)Cc1ccc(F)cc1
IC50 [1]: 5.1 µM

NC(=O)c1ccsc1NC(=O)Cc1ccc2c(c1)CCC2
IC50 [1]: 2.5 µM

NC(=O)c1ccsc1NC(=O)Cc1nc(-c2cccs2)cs1
IC50 [1]: > 25 µM

Cc1ccc(CC(=O)Nc2sccc2C(N)=O)cc1
IC50 [1]: 4.3 µM

NC(=O)c1ccsc1NC(=O)Cc1ccc(C(F)(F)F)cc1
IC50 [1]: 6.4 µM

NC(=O)c1ccsc1NC(=O)Cc1cc(F)cc(F)c1
IC50 [1]: 8.2 µM

N#Cc1cccc(CC(=O)Nc2sccc2C(N)=O)c1
IC50 [1]: 20.9 µM

NC(=O)c1ccsc1NC(=O)Cc1ccc2c(c1)OCO2
IC50 [1]: 1.8 µM

NC(=O)c1ccsc1NC(=O)Cc1ccc([N+](=O)[O-])cc1
IC50 [1]: 2.9 µM

Cc1cnc2sc(CC(=O)Nc3sccc3C(N)=O)cn12
IC50 [1]: 2.5 µM

N#Cc1ccsc1NC(=O)Cc1cccc2ccccc12
IC50 [1]: > 100 µM

Cc1ccccc1CC(=O)Nc1sccc1C(N)=O
IC50 [1]: 6 µM

NC(=O)c1ccsc1NC(=O)Cc1cccc(Cl)c1
IC50 [1]: 2.6 µM

NC(=O)c1ccsc1NC(=O)Cc1ccc(Cl)cc1
IC50 [1]: 18.7 µM

NC(=O)c1ccsc1NC(=O)Cc1cc(F)ccc1F
IC50 [1]: 5.8 µM

NC(=O)c1ccsc1NC(=O)Cc1csc(-c2ccccc2)n1
IC50 [1]: > 25 µM

NC(=O)c1ccsc1NC(=O)CN1CCN(C(=O)C2CC2)CC1
IC50 [1]: 83.5 µM

CC(C)Cc1ccc(CC(=O)Nc2sccc2C(N)=O)cc1
IC50 [1]: > 25 µM

COc1ccc(CC(=O)Nc2sccc2C(N)=O)cc1OC
IC50 [1]: > 25 µM

NC(=O)c1ccsc1NC(=O)CCc1ccccc1
IC50 [1]: > 100 µM

NC(=O)c1ccsc1NC(=O)CN1CCN(S(=O)(=O)c2ccccc2C(F)(F)F)CC1
IC50 [1]: 75.1 µM

NC(=O)c1ccsc1NC(=O)Cc1ccc(F)c(F)c1
IC50 [1]: 10.2 µM

NC(=O)c1ccsc1NC(=O)Cc1c(F)cccc1F
IC50 [1]: 7.4 µM

NC(=O)c1ccsc1NC(=O)Cc1cccnc1
IC50 [1]: 8.1 µM

NC(=O)c1ccsc1NC(=O)Cc1cccc(I)c1
IC50 [1]: 1.8 µM

NC(=O)c1ccsc1NC(=O)Cc1ccc2ccccc2c1
IC50 [1]: > 25 µM

CCOc1ccc(CC(=O)Nc2sccc2C(N)=O)cc1
IC50 [1]: 1.9 µM

NC(=O)c1ccsc1NC(=O)CN1CCOCC1
IC50 [1]: > 50 µM

COc1ccc2c(CC(=O)Nc3sccc3C(N)=O)c(Br)ccc2c1
IC50 [1]: > 25 µM

N#Cc1ccc(CC(=O)Nc2sccc2C(N)=O)cc1
IC50 [1]: 3.4 µM

COc1ccccc1CC(=O)Nc1sccc1C(N)=O
IC50 [1]: 11.9 µM

NC(=O)c1ccsc1NC(=O)Cc1cccc(Br)c1
t1/2 (Liver microsomes): 24 min | IC50 [1]: 1.8 µM | Stability (Plasma): Stable

Cc1cc(C(N)=O)c(NC(=O)Cc2cccc3ccccc23)s1
IC50 [1]: > 25 µM

NC(=O)c1ccccc1NC(=O)Cc1cccc2ccccc12
IC50 [1]: > 100 µM

Cc1cc(C)cc(CC(=O)Nc2sccc2C(N)=O)c1
IC50 [1]: 2.7 µM

NC(=O)c1ccsc1NC(=O)Cc1cc(Cl)c2c(c1)OCCCO2
IC50 [1]: 1.9 µM

NC(=O)c1ccsc1NC(=O)Cc1ccccc1I
IC50 [1]: 3.4 µM

COc1cc(CC(=O)Nc2sccc2C(N)=O)cc(OC)c1
IC50 [1]: 3.1 µM

NC(=O)c1ccsc1NC(=O)Cc1ccc2ccc3cccc4ccc1c2c34
IC50 [1]: > 50 µM

CC(C)c1ccc(CC(=O)Nc2sccc2C(N)=O)cc1
IC50 [1]: > 25 µM

NC(=O)c1ccsc1NC(=O)Cc1cccc(C(F)(F)F)c1
IC50 [1]: 7.6 µM

NC(=O)c1ccsc1NC(=O)Cc1ccc(F)cc1F
IC50 [1]: 9.7 µM

NC(=O)c1ccsc1NC(=O)Cc1csc2nc(-c3cccs3)cn12
IC50 [1]: 2.5 µM

NC(=O)c1ccsc1NC(=O)Cc1c(F)cccc1Cl
IC50 [1]: 12.5 µM

COc1cccc(CC(=O)Nc2sccc2C(N)=O)c1
IC50 [1]: 2.6 µM

NC(=O)c1ccsc1NC(=O)Cc1ccccc1Br
IC50 [1]: 2.9 µM

NC(=O)c1ccsc1NC(=O)Cc1cccc([N+](=O)[O-])c1
IC50 [1]: > 25 µM

NC(=O)c1ccsc1NC(=O)Cc1cc(F)cc2c1OCOC2
IC50 [1]: 4.9 µM

NC(=O)c1ccsc1NC(=O)Cc1cccc(F)c1
IC50 [1]: 9.4 µM

NC(=O)c1ccsc1NC(=O)Cc1ccc2c(c1)CCCC2
IC50 [1]: 3.6 µM

NC(=O)c1ccsc1NC(=O)Cc1ccccc1F
IC50 [1]: 8.3 µM

COC(=O)c1ccsc1NC(=O)Cc1cccc2ccccc12
IC50 [1]: > 100 µM

NC(=O)c1ccsc1NC(=O)Cc1ccc(OC(F)(F)F)cc1
IC50 [1]: 5.8 µM

Cc1sc(NC(=O)Cc2cccc3ccccc23)c(C(N)=O)c1C
IC50 [1]: 26 µM

O=C(Cc1cccc2ccccc12)Nc1sccc1C(=O)O
IC50 [1]: > 100 µM

Cc1cccc(CC(=O)Nc2sccc2C(N)=O)c1
IC50 [1]: 5.4 µM

NC(=O)c1ccsc1NC(=O)Cc1ccc(Br)cc1
IC50 [1]: > 25 µM
